Patent US20100143500A1, “Methods and Compositions for Inhibiting GSK-3 In Glial Cell Related Disorders” (THE OHIO STATE UNIVERSITY RESEARCH FOUNDATION, priority 2006, published 2010)

What was measured:
[1] = system: glioma cells; experiment: propidium iodide exclusion and metabolic cell viability assays; format: cell-based; conditions: under conditions that block cell motility
[2] = system: three additional glioma cell lines and two human glioblastoma biopsies (X12 and X14)
Procedure: Spheroids from 6 glioma cell lines were grown in the presence of LiCl (10 mM or 20 mM).
Cell lines and chemicals. The U87 and U87ΔEGFR cell lines were provided by Dr. Webster Cavenee (Ludwig Institute for Cancer Research, La Jolla, Calif.). The human glioblastoma biopsies, X12 and X14 (from Dr. C. David James, Mayo Clinic, Rochester, Minn.), were maintained as flank tumors in nude mice as described (5). All cells were grown in DMEM with 10% FBS and 1% penicillin-streptomycin.

[3] = system: U87 glioma cell spheroids; experiment: U87 glioma spheroid invasion in collagen I matrix
Procedure: U87 control spheroid after 96 hours expansion in type I collagen with 20 mM NaCl.
Time course of U87 spheroid invasion, in the presence of increasing concentrations of LiCl. Measurements were taken daily over a period of four days.
Time course of spheroid expansion with 20 mM LiCl washed out from U87 spheres at 24 hour intervals. Subsequent expansion was monitored microscopically.
To investigate the role of GSK-3 in glioma invasion, experiments were carried out to examine the effects of lithium chloride (LiCl), a known inhibitor of GSK-3, on the invasion of U87 glioma cell spheroids embedded in a collagen I matrix.

[4] = molecular target: T1, inositol monophosphatase (IMP) (Homo sapiens, UniProt P29218); conditions: cited from earlier work
T1 sequence (P29218 1-277): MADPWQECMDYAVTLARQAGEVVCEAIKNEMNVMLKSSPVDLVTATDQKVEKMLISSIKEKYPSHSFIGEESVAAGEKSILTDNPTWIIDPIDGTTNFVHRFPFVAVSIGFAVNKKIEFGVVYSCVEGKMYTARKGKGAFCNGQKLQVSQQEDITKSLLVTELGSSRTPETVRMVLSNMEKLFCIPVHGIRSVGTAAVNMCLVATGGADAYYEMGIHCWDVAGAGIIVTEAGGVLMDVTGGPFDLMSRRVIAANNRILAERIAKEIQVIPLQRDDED

Row | SMILES | cytotoxicity [1] | spheroid expansion as a percentage of control spheres ([2]; X12 cells, 96 hours) | spheroid invasion in further glioma cell lines and biopsies ([2]; panel of glioma cell lines, X12 and X14) | spheroid expansion as a percentage of control spheres ([3]; U87 cells, 96 hours) | invasion of glioma spheroids ([3]; U87 spheroids embedded in collagen I matrix) | reversibility of the invasion blockade ([3]; after removal of inhibitor, assay up to 96 hours) | effect on invasion ([3]; concentrations as high as 400 μM) | potency as IMP inhibitor relative to lithium [4]
1 | COc1ccc(CNC(=O)Nc2ncc([N+](=O)[O-])s2)cc1 [AR-A014418] | Minimal cytotoxicity | dose dependent decrease in spheroid expansion | observed in the full panel of cell lines | dose dependent decrease in spheroid expansion | dose-dependent blockade of invasion | reversible |  | 
2 | CC(Oc1ccc(O)cc1)(P(=O)(O)O)P(=O)(O)O [L-690, 330] |  |  |  |  |  |  | no effect on invasion | 1000 fold
3 | O=C1NC(=O)C(c2ccccc2[N+](=O)[O-])=C1Nc1ccc(O)c(Cl)c1 [SB415286] | Minimal cytotoxicity |  |  |  |  |  |  | 
